Measurements from patent publication US20260055088A1, “HETEROCYCLIC COMPOUND, METHOD FOR PREPARING SAME, AND PHARMACEUTICAL USE THEREOF” (Jiangsu Hengrui Pharmaceuticals Co., Ltd., priority 2022, published 2026).
Converted amounts (≈) assume the structure as drawn. Like-named read-outs stand apart in the source and are kept apart here.

Key:
[1] = Solubility in FassIF and FessIF solutions; format: physicochemical; settings: thermodynamic from solid, 37° C.
Source text: Reagents: dimethyl sulfoxide (chromatographically pure, Sigma-Aldrich, Cat. No. 472301-4X4L), ethanol (chromatographically pure, CNW, Cat. No. 4.016362.4000), acetonitrile (chromatographically pure, FISHER, Cat. No. A998-4), NaH2PO4·2H2O (analytically pure, Sinopharm Chemical Reagent Co., Ltd., Cat. No. 20040717), ammonium acetate (chromatographically pure, ALADDIN, Cat. No. 17836-250G), FaSSIF/FeSSIF/FaSSGF powder (Biorelevant, Cat. No. FFF02), FaSSIF buffer concentrate (Biorelevant, Cat. No. FASBUF), FeSSIF buffer concentrate (Biorelevant, Cat. No. FESBUF), and ultrapure water (made in-house using an ELGA CHORUS laboratory water purification system).
Instrument: Agilent 1200 DAD liquid chromatograph (Agilent, U.S.)
FaSSIF solution: 2.0825 g of FaSSIF medium solution and 48.055 g of ultrapure water were weighed into a 50-mL beaker, and 0.112 g of FaSSIF/FeSSIF/FaSSGF powder was then added to the beaker. The mixture was stirred to dissolve the powder, and the solution was then equilibrated by standing for 2 h before use (the solution should be used within 48 h). […]
3.1. […] 10 μL of the stock solution (concentration 10 mM, dissolved in DMSO) was precisely measured out and well mixed with 990 μL of an organic solvent mixture (usually DMSO:acetonitrile:ethanol=1:1:1) in a 2-mL sample flask to form a 100 μM clear sample solution. […]

[2] = molecular target: Nav1.8 ion channel stably expressed on HEK293 cells (Homo sapiens (Human), UniProt Q9Y5Y9); test: Inhibitory activity against Nav1.8, manual patch clamp; format: cell-based; settings: resting protocol (-80 mV to 10 mV), 1 μM TTX, read-out: IC50 for the inhibition of Nav1.8 channel activity
Source text: The objective of the experiment was to investigate the effects of the compounds on the Nav1.8 ion channel in ex vivo experiments. The Nav1.8 ion channel is stably expressed on HEK293 cells. After the Nav1.8 current stabilized, the effects of the compounds on the Nav1.8 ion channel were obtained by comparing the magnitudes of the Nav1.8 currents before and after the compounds were applied.
• 1) A patch clamp amplifier: patch clamp PC-505B (WARNER instruments)/MultiClamp 700A (Axon instrument) • 2) A digital-to-analog converter: Digidata 1440A (Axon CNS)/Digidata 1550A (Axon instruments) • 3) A micromanipulator: MP-225 (SUTTER instrument) • 4) An inverted microscope: TL4 (Olympus) • 5) Glass micropipette puller: PC-10 (NARISHIGE) • 6) Microelectrode glass capillaries: B12024F (Wuhan VitalSense Scientific Instruments Co., Ltd.) • 7) Dimethyl sulfoxide (DMSO) D2650 (Sigma-Aldrich) • 8) TTX AF3014 (Affix Scientific)
The compounds for preparing the intracellular and extracellular fluids were purchased from Sigma (St. Louis, MO) except for the NaOH and KOH for the acid-base titrations. The extracellular fluid (mM) was: NaCl, 137; KCl, 4; CaCl2, 1.8; MgCl2, 1; HEPES, 10; glucose, 10; pH 7.4 (NaOH titration). The intracellular fluid (mM) was: aspartic acid, 140; MgCl2, 2; EGTA, 11; HEPES, 10; pH 7.2 (CsOH titration). All test and control compound solutions contained 1 μM TTX.
The test compounds were stored at a concentration of 9 mM in dimethyl sulfoxide (DMSO). On the testing day, the compounds were further dissolved in the extracellular fluid to prepare the required concentrations.
1) After the compounds were prepared into solutions with specified concentrations, the compound solutions were sequentially added to channels in ascending order according to their concentrations, and each channel was labeled.
2) A cell was transferred to the perfusion chamber. Positive pressure was applied inside the electrode, and the electrode tip was brought into contact with the cell. The three-way valve of the suction device was switched to the state where all three ways were open, and negative pressure was then applied to the electrode, allowing a high-resistance seal to form between the electrode and the cell. The application of negative pressure was continued to rupture the cell membrane, leading to the formation of a current pathway.
3) After the cell membrane rupture current stabilized, perfusion was performed with different concentrations in sequence. If the current remained stable for at least one minute, perfusion was performed with the next concentration.
4) The perfusion chamber was cleaned. The perfusion chamber was rinsed with the compound solutions in descending order according to their concentrations, with each concentration applied for 20 s. Finally, the perfusion chamber was rinsed with the extracellular fluid for 1 min.
The cell was clamped at −80 mV and then depolarized to 10 mV using a square wave lasting for 10 ms to obtain a Nav1.8 current. This procedure was repeated once every 5 seconds. The maximum current induced by the square wave was detected. After the current stabilized, perfusion was performed with the test compounds. After the reaction stabilized, the strength of the blocking was calculated.
The data were stored on a computer system and analyzed. Data acquisition and analysis were performed using pCLAMP 10 (Molecular Devices, Union City, CA), and the results were reviewed by a manager. “Current stabilized” means that the changes in current over time were within a limited range. The magnitude of the current after stabilization was used to calculate the effect of the compound at this […].
The inhibitory activity of the compounds of the present disclosure against Nav1.8 was determined through the above assay.

COc1c([C@H]2[C@H](C(=O)Nc3ccnc(C(=N)N)c3)O[C@@](C)(C(F)(F)F)[C@H]2C)ccc(F)c1F [Example 20, (2R,3S,4S,5R)—N-(2-Carbamimidoylpyridin-4-yl)-3-(3,4-difluoro-2-methoxyphenyl)-4,5-dimethyl-5-(trifluoromethyl)tetrahydrofuran-2-carboxamide]
solubility at 24 h ([1]; FassIF solution, read-out: Solubility in FassIF solution): 308 µM (≈ 145 µg/mL)
solubility at 24 h ([1]; FessIF solution, read-out: Solubility in FessIF solution): 2410 µM (≈ 1140 µg/mL)
IC50 [2]: 0.24 nM
